Experimental findings from patent publication US7576113B2, “Use of (E)-5-(4-chlorbenzyliden)-2,2-dimethyl-1-(1H-1,2,4-triazol-1-ylmethyl) cyclopentanol for combating rust attacks on soya plants” (BASF Aktiengesellschaft, priority 2004, dated 2009) are described below.

Each structure is given as a SMILES string. Some results are limits rather than exact numbers.

Holding throughout (type): in vivo
In assay [1] the test system is Phakopsora pachyrhizi. The assay is described as follows: Curative treatment of diseased soybean plants, field experiments. As to the method:
In field experiments, different varieties of soybean plants whose leaves were already infested with Phakopsora pachyrhizi were treated with an aqueous triticonazole preparation using equipment conventionally used under practice conditions. The application rates were from 20 to 200 g/ha. 25 days after the treatment, the disease level on the untreated, but infested, leaves had developed to such an extent that it covered 50% of the leaf area. In the treated plants, in contrast, Phakopsora pachyrhizi disease had only reached a maximum of 25%.

The test system of assay [2] is Phakopsora pachyrhizi. Nature of the assay: Protective treatment of soybean plants, field experiments. As to the method: In field experiments, different varieties of soybean plants were treated with an aqueous triticonazole preparation. The application rates amounted to 20 to 200 g/ha. Thereafter, the plants were inoculated with Phakopsora pachyrhizi. 25 days after the treatment, the disease level on the untreated, but infested, leaves had developed to such an extent that it covered 50% of the leaf area. In the treated plants, in contrast, Phakopsora pachyrhizi disease had only reached a maximum of 25%.

Assay [3] concerns Phakopsora pachyrhizi. The assay is described as follows: Curative activity against soybean rust via spray application, potted seedlings in greenhouse. The following applies: 3 days after inoculation, cultivar Hutcheson, untreated 80. How it is done: A commercial ready-to-used formulation of Triticonazole (suspension concentrate, concentration of active ingredient 200 g/l) was diluted with water to the active ingredient concentraten (act.conc.) given in Table 2.
Leaves of potted soybean seedlings of the cultivar “Hutcheson” were inoculated with a suspension of spores of soybean rust (Phakopsora pachyrhizi). The pots were placed in a chamber with high atmospheric humidity (90 to 95%) at 22 to 24° C. for 24 hours. During this time, the spores germinated and the germ tubes penetrated into the leaf tissue. After 3 days, the infected plants were sprayed to runoff point with an aqueous suspension having the concentration of active compound as given in table 2. The suspensions or emulsions were prepared as described above. After the spray coating was dry, the test plants were cultivated in a greenhouse at temperatures between 22 and 24° C. and at 90% relative humidity for 17 days. The extent of the rust development on the leaves was then determined.

In assay [4] the test system is Phakopsora pachyrhizi. Nature of the assay: Seed treatment of soybean c.v. Embrapa 48, rust disease of leaf areas. The following applies: seed treatment 12.5, 25, 50, 100 and 250 g per 100 kg of seed, all cases, after 50 days; untreated at least 50%. As to the method: Seed of soybean plants c.v. “Embrapa 48” were treated with a composition suitable for seed treatment, comprising triticonazole as active substance, at application rates in the range of from 12.5 g, 25 g, 50 g, 100 g and 250 g of triticonazole per 100 kg of seed. Thereafter, the seed was sown. The soybean plants thus grown were then inoculated with Phakopsora pachyrhizi. After 50 days, the level of rust disease of the leaf areas was determined. The disease level in the plants from untreated seed was at least 50%, whereas the disease level of the leaf area in plants from treated seed was less than 25% in all cases.

Assay [5] concerns Phakopsora pachyrhizi. Nature of the assay: Protective activity against soybean rust via seed treatment, field experiment in Brazil. The following applies: cultivar IAC 8.2, 60 DAT, untreated 40. As to the method:
A defined amound of a commercial ready-to-used formulation of Triticonazole (suspension concentrate, concentration of active ingredient 200 g/l), corresponding to the desired application (a.r.) rate of 5, 15, 30 und 50 g ai/100 kg soybean was diluted with water to a total volume of 1 Ltr./100 kg Soybean.
Soybean seeds of the cultivar “IAC 8.2” were treated in a commercial device for dressing seeds with the thus prepared aqueous suspension of triticonazole and then seeded in a field experiment in Brazil. The leaves of the soybean plants thus grown were inoculated at an appropriate growing stage with a spore suspension of soybean rust (Phakopsora pachyrhizi). Thereafter the plants were kept wet for 6-8 h overnight by means of a finely dripping sprinkling device. During this time the spores germinated and their germ tubes penetrated into the leaf tissue. 60 days after treatment (60 DAT) or seeding, respectively, the extent of rust formation on the leaves of the infected plants was determinated.

For the compound `CC1(C)CC/C(=C\c2ccc(Cl)cc2)C1(O)Cn1cncn1` (centres unmarked) [triticonazole, (E)-5-(4-chlorobenzylidene)-2,2-dimethyl-1-(1H-1,2,4-triazol-1-ylmethyl)cyclopentanol], the “yield in comparison with the untreated control” value with Phakopsora pachyrhizi [1] (20 to 200 g/ha, field) was “markedly improved”; in the assay with Phakopsora pachyrhizi [2] (20 to 200 g/ha, field), “markedly improved”. In addition, the “Phakopsora pachyrhizi disease level (leaf area covered)” value with Phakopsora pachyrhizi [1] (aqueous preparation 20 to 200 g/ha, 25 days after treatment, different soybean varieties, untreated 50%) is no more than 25%; in the assay on Phakopsora pachyrhizi [2] (aqueous preparation 20 to 200 g/ha, inoculated after treatment, 25 days after treatment, untreated 50%) it was no more than 25%. Besides, the results for the “% infected leaf area (17 DAT)” value with Phakopsora pachyrhizi [3] (spray act. conc. 1 ppm) and in the assay with Phakopsora pachyrhizi [3] (spray act. conc. 4 ppm) were 9% and 1%, respectively. The “disease level of the leaf area” value with Phakopsora pachyrhizi [4] was “less than 25%”. Moreover, the “% infected leaf area (60 DAT)” value amounted to 23% in the assay with Phakopsora pachyrhizi [5] (seed treatment a.r. 5 g/100 kg), 11% in the assay on Phakopsora pachyrhizi [5] (seed treatment a.r. 15 g/100 kg), 9% in the assay on Phakopsora pachyrhizi [5] (seed treatment a.r. 30 g/100 kg) and 3% in the assay on Phakopsora pachyrhizi [5] (seed treatment a.r. 50 g/100 kg).
